{"source": "PubChem BioAssay AID330", "about": "(DTP/NCI, 2004)", "system": "P388 leukemia ip, CD2F1 mice, survival T/C", "test": "NCI In Vivo Anticancer Drug Screen. Data for tumor model P388 Leukemia (intraperitoneal) in CD2F1 (CDF1) mice", "settings": "endpoint: median survival time, higher = longer survival", "how_it_was_run": "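Mice carrying the transplanted tumor received test compound or vehicle. Survival was recorded in each group, and the value is the treated-group measurement divided by that of the vehicle-treated control group.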", "key": {"[1]": {"settings": "dose: 50.0 mg/kg/injection, schedule: Q01DX009 (ip), vehicle: saline"}, "[2]": {"settings": "dose: 100.0 mg/kg/injection, schedule: Q01DX009 (ip), vehicle: saline"}, "[3]": {"settings": "dose: 200.0 mg/kg/injection, schedule: Q01DX009 (ip), vehicle: saline"}, "[4]": {"settings": "dose: 60.0 mg/kg/injection, schedule: Q01DX005 (ip), vehicle: saline with Tween-80"}, "[5]": {"settings": "dose: 120.0 mg/kg/injection, schedule: Q01DX005 (ip), vehicle: saline with Tween-80"}, "[6]": {"settings": "dose: 240.0 mg/kg/injection, schedule: Q01DX005 (ip), vehicle: saline with Tween-80"}}, "note": "Values joined by “and” are separate entries in the source; they are usually repeats but may differ in a detail not shown here. Identical values can stand only once. Inconclusive results and toxic doses are left out.", "data": [{"smiles": "O=C(O)/C=N/NS(=O)(=O)c1ccccc1", "values": [{"measurement": "T/C", "setting": "dose: 12.5 mg/kg/injection, schedule: Q01DX009 (ip), vehicle: water", "result": "113 % of control"}, {"measurement": "T/C", "setting": "dose: 50.0 mg/kg/injection, schedule: Q01DX009 (ip), vehicle: water", "result": "153 % of control"}, {"measurement": "T/C", "setting": "dose: 75.0 mg/kg/injection, schedule: Q01DX009 (ip), vehicle: water", "result": "163 % of control"}, {"measurement": "T/C", "setting": "dose: 100.0 mg/kg/injection, schedule: Q01DX009 (ip), vehicle: water", "result": "99 % of control"}]}, {"smiles": "COC(=O)C1=C/C=C\\CN(C(c2ccccc2)c2ccccc2)/C=C\\1C(=O)OC", "values": [{"measurement": "T/C", "setting": "dose: 50.0 mg/kg/injection, schedule: Q01DX009 (ip), vehicle: suspension in saline", "result": "100 % of control"}, {"measurement": "T/C", "setting": "dose: 100.0 mg/kg/injection, schedule: Q01DX001 (ip), vehicle: saline", "result": "100 % of control"}, {"measurement": "T/C", "setting": "dose: 100.0 mg/kg/injection, schedule: Q01DX009 (ip), vehicle: suspension in saline", "result": "89 % of control"}, {"measurement": "T/C", "setting": "dose: 200.0 mg/kg/injection, schedule: Q01DX001 (ip), vehicle: saline", "result": "100 % of control"}, {"measurement": "T/C", "setting": "dose: 200.0 mg/kg/injection, schedule: Q01DX009 (ip), vehicle: suspension in saline", "result": "95 % of control"}, {"measurement": "T/C", "setting": "dose: 400.0 mg/kg/injection, schedule: Q01DX001 (ip), vehicle: saline", "result": "97 % of control"}, {"measurement": "T/C", "setting": "dose: 400.0 mg/kg/injection, schedule: Q01DX009 (ip), vehicle: suspension in saline", "result": "104 % of control"}]}, {"smiles": "Cc1cc(Cl)n2nc(-c3ccc(Cl)cc3)nc2n1", "values": [{"measurement": "T/C", "setting": "dose: 12.5 mg/kg/injection, schedule: Q01DX009 (ip), vehicle: Klucel (hydroxypropylcellulose) (HPC)", "result": "106 % of control"}, {"measurement": "T/C", "setting": "dose: 25.0 mg/kg/injection, schedule: Q01DX009 (ip), vehicle: Klucel (hydroxypropylcellulose) (HPC)", "result": "100 % of control"}, {"measurement": "T/C", "setting": "dose: 50.0 mg/kg/injection, schedule: Q01DX009 (ip), vehicle: Klucel (hydroxypropylcellulose) (HPC)", "result": "109 % of control and 110 % of control"}]}, {"smiles": "Cc1c(Cl)cc([N+](=O)[O-])cc1S(=O)(=O)Oc1ccccc1", "values": [{"measurement": "T/C", "setting": "dose: 100.0 mg/kg/injection, schedule: Q01DX001 (ip), vehicle: Klucel (hydroxypropylcellulose) (HPC)", "result": "103 % of control"}, {"measurement": "T/C", "setting": "dose: 200.0 mg/kg/injection, schedule: Q01DX001 (ip), vehicle: Klucel (hydroxypropylcellulose) (HPC)", "result": "108 % of control"}, {"measurement": "T/C", "setting": "dose: 400.0 mg/kg/injection, schedule: Q01DX001 (ip), vehicle: Klucel (hydroxypropylcellulose) (HPC)", "result": "100 % of control"}]}, {"smiles": "CC1(C)C2C=CC(OC2=O)C1(C)NC(=O)OCc1ccccc1", "note": "(stereo not given)", "values": [{"measurement": "T/C", "setting": "[1]", "result": "96 % of control"}, {"measurement": "T/C", "setting": "[2]", "result": "98 % of control"}, {"measurement": "T/C", "setting": "[3]", "result": "99 % of control"}]}, {"smiles": "C=C1C(=O)C[C@@H]2CC(C)(C)C[C@]12CC(=O)O", "values": [{"measurement": "T/C", "setting": "dose: 2.5 mg/kg/injection, schedule: Q01DX005 (ip), vehicle: water", "result": "90 % of control"}, {"measurement": "T/C", "setting": "dose: 5.0 mg/kg/injection, schedule: Q01DX005 (ip), vehicle: water", "result": "109 % of control"}, {"measurement": "T/C", "setting": "dose: 10.0 mg/kg/injection, schedule: Q01DX005 (ip), vehicle: water", "result": "97 % of control"}, {"measurement": "T/C", "setting": "dose: 20.0 mg/kg/injection, schedule: Q01DX005 (ip), vehicle: water", "result": "98 % of control"}, {"measurement": "T/C", "setting": "dose: 40.0 mg/kg/injection, schedule: Q01DX005 (ip), vehicle: water", "result": "101 % of control"}]}, {"smiles": "COc1ccc(OC)c(NC(=O)Oc2ccc(C#N)cc2)c1", "values": [{"measurement": "T/C", "setting": "[4]", "result": "119 % of control"}, {"measurement": "T/C", "setting": "[5]", "result": "107 % of control"}, {"measurement": "T/C", "setting": "[6]", "result": "111 % of control"}]}, {"smiles": "C=C1Cc2cc(OC)c(OC)cc2C(c2cccc(Cl)c2)=NN1C(C)=O", "values": [{"measurement": "T/C", "setting": "[4]", "result": "95 % of control"}, {"measurement": "T/C", "setting": "[5]", "result": "97 % of control"}, {"measurement": "T/C", "setting": "[6]", "result": "100 % of control"}]}, {"smiles": "O=C1C(Cl)=C(Nc2ccc(C(=O)Nc3ccc4cc(S(=O)(=O)O)cc(S(=O)(=O)O)c4c3)cc2)C(=O)C(Cl)=C1Nc1ccc(C(=O)Nc2ccc3cc(S(=O)(=O)O)cc(S(=O)(=O)O)c3c2)cc1", "values": [{"measurement": "T/C", "setting": "[1]", "result": "110 % of control"}, {"measurement": "T/C", "setting": "[2]", "result": "89 % of control"}, {"measurement": "T/C", "setting": "[3]", "result": "103 % of control"}]}, {"smiles": "Cc1nnc2n(N)c(=O)c(CC(=O)c3ccc(F)cc3)nn12", "values": [{"measurement": "T/C", "setting": "dose: 60.0 mg/kg/injection, schedule: Q01DX005 (ip), vehicle: Klucel (hydroxypropylcellulose) (HPC)", "result": "96 % of control"}, {"measurement": "T/C", "setting": "dose: 120.0 mg/kg/injection, schedule: Q01DX005 (ip), vehicle: Klucel (hydroxypropylcellulose) (HPC)", "result": "88 % of control"}, {"measurement": "T/C", "setting": "dose: 240.0 mg/kg/injection, schedule: Q01DX005 (ip), vehicle: Klucel (hydroxypropylcellulose) (HPC)", "result": "90 % of control"}]}, {"smiles": "O=C(Nc1ccc(C(=O)Nc2ccc(C3=NCCCN3)cc2)cc1)Nc1ccc(C2=NCCCN2)cc1", "values": [{"measurement": "T/C", "setting": "dose: 6.25 mg/kg/injection, schedule: Q04DX003 (ip), vehicle: saline with Tween-80", "result": "108 % of control"}, {"measurement": "T/C", "setting": "dose: 12.5 mg/kg/injection, schedule: Q01DX009 (ip), vehicle: saline with Tween-80", "result": "204 % of control"}, {"measurement": "T/C", "setting": "dose: 25.0 mg/kg/injection, schedule: Q01DX009 (ip), vehicle: saline with Tween-80", "result": "122 % of control"}, {"measurement": "T/C", "setting": "dose: 25.0 mg/kg/injection, schedule: Q04DX003 (ip), vehicle: saline with Tween-80", "result": "150 % of control"}, {"measurement": "T/C", "setting": "dose: 100.0 mg/kg/injection, schedule: Q04DX003 (ip), vehicle: saline", "result": "90 % of control"}]}, {"smiles": "OC1CC(OCc2ccccc2)CC1O", "note": "(stereo not given)", "values": [{"measurement": "T/C", "setting": "dose: 50.0 mg/kg/injection, schedule: Q01DX009 (ip), vehicle: saline with Tween-80", "result": "103 % of control"}, {"measurement": "T/C", "setting": "dose: 100.0 mg/kg/injection, schedule: Q01DX009 (ip), vehicle: saline with Tween-80", "result": "97 % of control"}, {"measurement": "T/C", "setting": "dose: 200.0 mg/kg/injection, schedule: Q01DX009 (ip), vehicle: saline with Tween-80", "result": "103 % of control"}]}]}
